Laboratory results taken from ChEMBL document CHEMBL1144912, “Anticancer activity of phenolic acids of natural or synthetic origin: a structure-activity study” (2003).

How the values were obtained:
MOLT-3 [1] = assay: Percent reduction in cell viability of MOLT-3 cells 48 hr after incubation with the compound; assay type: functional, Homo sapiens
MDA-MB-231 [2] = assay: Percent reduction in cell viability of MDA-MB-231 cells 48 hr after incubation with compound; assay type: functional, Homo sapiens
MOLT-3 [3] = assay: Percent reduction in cell viability of MOLT-3 cells 72 hr after incubation with 50 uM of compound; assay type: functional, Homo sapiens
L132 [4] = assay: Concentration for low cytotoxic activity against L-132 cell line; Range is 50-100 uM; assay type: functional, cell-based; details: Homo sapiens
MOLT-3 [5] = assay: Concentration for low cytotoxic activity against MOLT-3 cell line; Range is 50-100 uM; assay type: functional, cell-based; details: Homo sapiens
MDA-MB-231 [6] = assay: Concentration for low cytotoxic activity against MDA-MB-231 cell line; Range is 50-100 uM; assay type: functional, cell-based; details: Homo sapiens
HeLa [7] = assay: Concentration for low cytotoxic activity against HeLa cell line; Range is 50-100 uM; assay type: functional, cell-based; details: Homo sapiens
MDA-MB-231 [8] = assay: Percent reduction in cell viability of MDA-MB-231 cells 72 hr after incubation with compound; assay type: functional, Homo sapiens
MOLT-3 [9] = assay: Percent reduction in cell viability of MOLT-3 cells 72 hr after incubation with the compound; assay type: functional, Homo sapiens
HeLa [10] = assay: Percent reduction in cell viability of HeLa cells 72 hr after incubation with compound; assay type: functional, Homo sapiens
HeLa [11] = assay: Percent reduction in cell viability of HeLa cells 72 hr after incubation with 100 uM of compound; assay type: functional, Homo sapiens
L132 [12] = assay: Percent reduction in cell viability of L-132 cells 72 hr after incubation with 100 uM of compound; assay type: functional, Homo sapiens
MOLT-3 [13] = assay: Percent reduction in cell viability of MOLT-3 cells 72 hr after incubation with 100 uM of compound; assay type: functional, Homo sapiens
HeLa [14] = assay: Cytotoxic effect of compound measured as cell density of HeLa cells 72 hrs after incubation with compound compared to a initial density of […] cells/mL; assay type: functional, Homo sapiens

Which results are given for O=C(O)CCc1cc(O)c(O)c(O)c1?
Reduction (MOLT-3 [1]): 45%; Reduction (MDA-MB-231 [2]): 55%

O=C(O)Cc1ccc(O)c(O)c1 [3,4-DIHYDROXYPHENYLACETIC ACID] was tested. Which Reduction (MOLT-3 [3]) did it give?
Its Reduction is 75%.

For O=C(O)/C=C/c1ccc(O)c(OO)c1, which Concentration (L132 [4]) is on record?
Its Concentration is 100 µM.

What about the Concentration (MOLT-3 [5]) of the same compound?
The Concentration was 100 µM.

And the Concentration (MDA-MB-231 [6])?
The Concentration was 100 µM.

What about the Concentration (HeLa [7]) of the same compound?
Its Concentration is 100 µM.

Which Reduction (MDA-MB-231 [8]) does the source give for O=C(O)c1cc(O)c(O)c(O)c1 [GALLIC ACID] here?
Its Reduction is 65%.

And the Reduction (MOLT-3 [9])?
The Reduction was 50%.

And the Reduction (HeLa [10])?
Its Reduction is 74%.

With O=C(O)Cc1cc(O)c(O)c(O)c1 as the compound, how does the Reduction (HeLa [11]) read?
The Reduction was 80%.

What about the Reduction (MDA-MB-231 [8]) of the same compound?
Its Reduction is 60%.

What about the Reduction (L132 [12]) of the same compound?
Its Reduction is 50%.

What about the Reduction (MOLT-3 [13]) of the same compound?
The Reduction was 47%.

Which Cell density (HeLa [14]) does the source give for O=C(O)CCc1ccc(O)c(O)c1 [DIHYDROCAFFEIC ACID] here?
Its Cell density is 500000 cells ml-1.
